According to patent US4118482A (priority 1977, dated 1978):
Where two headings read alike, the source gives them in different places. Numbered stars: 1 amine (or outer) side, 2 acyl side, 3 side chain; on linkers, the order of the positions; unused ones are H or OH. Bridge positions count the residues as written; N and C are the ends. Square brackets hold non-standard residues; d marks the D form. Peptide text beside a SMILES is read from it. I, II: the chains in the order shown. Actinocin(9to1) = Cc1c2oc3c(C)ccc(C(=O)[*:1])c3nc-2c(C(=O)[*:2])c(N)c1=O; NMeV = CN[C@H](C(=O)O)C(C)C; Sar = CNCC(=O)O

Key:
[1] = tested on: ADVANCED P388 LEUKEMIA; test: Advanced P388 leukemia in mice, treatment Q4D x 3 at days 5, 9, 13; type: in vivo; conditions: Q4D x 3 days 5, 9, 13, advanced P388; for SURVIAL TIME MEDIAN: controls 10 days
Excerpt: (§1) The National Cancer Institute conducted a screening test on samples of both Azetomicin I (3' prolyl, 3' azet) and Azetomicin II (3', 3' azet) as well as on Dactinomycin (3', 3' prolyl) that is also known as Actinomycin D or C1. The Azetomicin and Dactinomycin molecules are identical, with the exception of the 3' amino acid position on the peptides, wherein the 3' positions, in the case of Dactinomycin are both prolyl; in the case of the Azetomicin I are prolyl and azetidine-2-carboxyl; and in the cae of Azetomicin II are both azetidine-2-carboxyl.
ADVANCED P388 LEUKEMIA : Q4D × 3 AT DAYS 5, 9, 13 TREATMENT

[2] = tested on: Rous sarcoma virus; test: Development of visible tumors in chicks infected with Rous sarcoma virus, single injection; type: in vivo; conditions: injected once; compared with untreated or saline injected controls
Protocol: In another test, both Azetomicin I and Azetomicin II, were injected once into chicks infected with Rous sarcoma virus. The development of visible tumors was decreased by over 80% as compared with untreated or saline injected controls.

[3] = tested on: Bacillus subtilis, Staphylococcus aureus and Staphylococcus albus; test: Inhibition of bacterial growth (cross section of gram-positive and gram-negative bacteria); type: cell-based
[4] = tested on: advanced Ridgeway osteogenic sarcoma; test: Drug-induced regression of advanced Ridgeway osteogenic sarcoma in mice; type: in vivo
Protocol: A sample of Azetomicin I was tested on mice infected with advanced Ridgeway osteogenic sarcoma. […] Data supplied by Dr. F. Schabel and his coworkers at Southern Research Institute has been collected in Table II below, with the results from Azetomicin I testing also noted: […]

[5] = tested on: P388 leukemia; test: P388 leukemia in mice, treatment QD at days 1-9 (National Cancer Institute screen); type: in vivo; conditions: for 5 ILS* (increased life span) / 60 DAY "CURES" / SURVIAL TIME MEDIAN: QD days 1-9, P388 mice; for SURVIAL TIME MEDIAN: controls 10 days
Excerpt: as §1
P 388 LEUKEMIA : QD AT DAYS 1-9 TREATMENT

[6] = Toxicity per mg compared with Actinomicin D
[7] = Storage stability in aqueous solution; type: physicochemical; conditions: 0°-25° C, pH range of 5-8, maintained in the dark
Protocol: The major products of interest were determined to be Azetomicin I and Azetomycin II. They were stable after storage at 0°-25° C in aqueous solution in the pH range of 5-8 for at least 5 days when maintained in the dark.

[8] = tested on: advanced Ridgeway osteogenic sarcoma; conditions: cited from earlier work
[9] = schedule day 12, Azetomicin I testing
[10] = schedule day 12, data of Southern Research Institute

Azetomicin I [AZETOMICIN-I]
5 ILS* (increased life span) ([1]; 0.6 Mg/Kg/Inj.): 270%
60 DAY "CURES" ([1]; 0.6 Mg/Kg/Inj.): 0
SURVIAL TIME MEDIAN ([1]; 0.6 Mg/Kg/Inj.): 37 days
decrease of development of visible tumors [2]: over 80%
activity against bacterial growth relative to Actinomicin D [3]: 70%
animals with complete regression ([4]; of 10 animals treated, 12th day only injection schedule): 10 animals
"CURES" (Number/Total) [4, 9]: 10/10
REGRESSION 50+%-PARTIAL (Number/Total) [4, 9]: 10/10
REGRESSION COMPLETE (Number/Total) [4, 9]: 10/10
5 ILS* (increased life span) ([5]; 0.05 Mg/Kg/Inj.): 150%
60 DAY "CURES" ([5]; 0.05 Mg/Kg/Inj.): 0%
SURVIAL TIME MEDIAN ([5]; 0.05 Mg/Kg/Inj.): 25 days
5 ILS* (increased life span) ([5]; 0.1 Mg/Kg/Inj.): 155%
60 DAY "CURES" ([5]; 0.1 Mg/Kg/Inj.): 0%
SURVIAL TIME MEDIAN ([5]; 0.1 Mg/Kg/Inj.): 25.5 days
5 ILS* (increased life span) ([5]; 0.2 Mg/Kg/Inj.): ≥ 500%
60 DAY "CURES" ([5]; 0.2 Mg/Kg/Inj.): 60%
SURVIAL TIME MEDIAN ([5]; 0.2 Mg/Kg/Inj.): ≥ 60 days
activity compared with Dactinomycin (summary of Table I) ([5]; P388 leukemia mice, Table I): clearly greater activity than both
toxicity/mg. compared with Actinomicin D [6]: substantially less toxic/mg.
time stable after storage in aqueous solution [7]: at least 5 days

O=P1(N(CCCl)CCCl)NCCCO1 (stereo not drawn) [CYCLOPHOSPHAMIDE]
"CURES" (Number/Total) [8, 10]: 3/8
REGRESSION 50+%-PARTIAL (Number/Total) [8, 10]: 8/8
[…] (Number/Total) [8, 10]: 8/8

Cc1c2oc3c(C)ccc(C(=O)N[C@@H]4C(=O)N[C@H](C(C)C)C(=O)N5CCC[C@H]5C(=O)N(C)CC(=O)N(C)[C@@H](C(C)C)C(=O)O[C@@H]4C)c3nc-2c(C(=O)N[C@@H]2C(=O)N[C@H](C(C)C)C(=O)N3CCC[C@H]3C(=O)N(C)CC(=O)N(C)[C@@H](C(C)C)C(=O)O[C@@H]2C)c(N)c1=O [DACTINOMYCIN, Dactinomycin] (I: T[dV]P[Sar][NMeV] / II: T[dV]P[Sar][NMeV]; ester I:1-I:C, II:1-II:C; linker I:N-II:N via Actinocin(9to1))
5 ILS* (increased life span) ([1]; 0.15 Mg/Kg/Inj.): 95%
60 DAY "CURES" ([1]; 0.15 Mg/Kg/Inj.): 0
SURVIAL TIME MEDIAN ([1]; 0.15 Mg/Kg/Inj.): 19.5 days
5 ILS* (increased life span) ([5]; 0.05 Mg/Kg/Inj.): 180%
60 DAY "CURES" ([5]; 0.05 Mg/Kg/Inj.): 0%
SURVIAL TIME MEDIAN ([5]; 0.05 Mg/Kg/Inj.): 28 days
5 ILS* (increased life span) ([5]; 0.1 Mg/Kg/Inj.): 115%
60 DAY "CURES" ([5]; 0.1 Mg/Kg/Inj.): 12%
SURVIAL TIME MEDIAN ([5]; 0.1 Mg/Kg/Inj.): 21.5 days

CO[C@@]12[C@H](COC(N)=O)C3=C(C(=O)C(C)=C(N)C3=O)N1C[C@@H]1N[C@@H]12 [MITOMYCIN-C]
"CURES" (Number/Total) [8, 10]: 0/10
REGRESSION 50+%-PARTIAL (Number/Total) [8, 10]: 0/10
REGRESSION COMPLETE (Number/Total) [8, 10]: 0/10

S=P(N1CC1)(N1CC1)N1CC1 [THIO-TEPA]
"CURES" (Number/Total) [8, 10]: 0/10
REGRESSION 50+%-PARTIAL (Number/Total) [8, 10]: 0/10
REGRESSION COMPLETE (Number/Total) [8, 10]: 0/10

CC[C@]1(O)C[C@H]2CN(CCc3c([nH]c4ccccc34)[C@@](C(=O)OC)(c3cc4c(cc3OC)N(C=O)[C@H]3[C@@](O)(C(=O)OC)[C@H](OC(C)=O)[C@]5(CC)C=CCN6CC[C@]43[C@@H]65)C2)C1 [VINCRISTINE]
"CURES" (Number/Total) ([8]; schedule days 12,16,20): 0/10
REGRESSION 50+%-PARTIAL (Number/Total) ([8]; schedule days 12,16,20): 10/10
REGRESSION COMPLETE (Number/Total) ([8]; schedule days 12,16,20): 8/10

O=NN(CCCl)C(=O)NC1CCCCC1 [CCNU]
"CURES" (Number/Total) [8, 10]: 0/8
REGRESSION 50+%-PARTIAL (Number/Total) [8, 10]: 0/8
REGRESSION COMPLETE (Number/Total) [8, 10]: 0/8

Nc1ncn([C@@H]2O[C@H](CO)[C@@H](O)[C@H]2O)c(=O)n1 [AZACYTIDINE]
"CURES" (Number/Total) ([8]; schedule days 12,16,20,24): 0/7
REGRESSION 50+%-PARTIAL (Number/Total) ([8]; schedule days 12,16,20,24): 0/7
REGRESSION COMPLETE (Number/Total) ([8]; schedule days 12,16,20,24): 0/7

CN(Cc1cnc2nc(N)nc(N)c2n1)c1ccc(C(=O)N[C@@H](CCC(=O)O)C(=O)O)cc1 [METHOTREXATE]
"CURES" (Number/Total) ([8]; schedule days 12,16,20,24): 0/10
REGRESSION 50+%-PARTIAL (Number/Total) ([8]; schedule days 12,16,20,24): 0/10
REGRESSION COMPLETE (Number/Total) ([8]; schedule days 12,16,20,24): 0/10

O=C(O)CCCc1ccc(N(CCCl)CCCl)cc1 [CHLORAMBUCIL]
"CURES" (Number/Total) [8, 10]: 0/10
REGRESSION 50+%-PARTIAL (Number/Total) [8, 10]: 0/10
REGRESSION COMPLETE (Number/Total) [8, 10]: 0/10

O=NN(CCCl)C(=O)NCCCl [BCNU]
"CURES" (Number/Total) [8, 10]: 0/8
REGRESSION 50+%-PARTIAL (Number/Total) [8, 10]: 0/8
REGRESSION COMPLETE (Number/Total) [8, 10]: 0/8
